Measured values from paper PMC5435703 (Scientific Reports, 2017).
≈ marks a conversion by molar mass, not a printed value. Like-named read-outs stand apart in the source and are kept apart here. Marks after values point to notes of the source that are not given here.

Assays:
MRSE 35984 [1] = assay: MIC broth microdilution assay; assay type: cell-based, Staphylococcus epidermidis
UV-Vis metal(II) binding = assay type: physicochemical; conditions: UV-Vis kinetics, compared to HP 1
Description: The rates of halogenated phenazine-copper(II) complex formation were independently evaluated via UV-Vis spectrometry following addition of 0.5 equivalents copper(II) sulfate to stirring solutions of HP (10 mM, 4 mL) in dimethyl sulfoxide. Spectral scanning was performed from 200 to 800 nm in 2 nm increments. The disappearance of HPs 1, 17 and 22 was observed over the indicated time points. The halogenated phenazine-copper(II) complex formation yielded a loss in absorbance due to precipitation.

MRSA BAA-1707 [2] = assay: MIC assay with metal(II) cation co-treatment; assay type: cell-based, Staphylococcus aureus
MtB H37Ra = assay: MIC assay for Mycobacterium tuberculosis; assay type: cell-based; conditions: 168 h, seven days
MRSA BAA-1707 [3] = assay: MIC broth microdilution assay; assay type: cell-based, Staphylococcus aureus; conditions: for MIC: Staphylococcus aureus
four MRSA isolates = assay: MIC assays, panel of four MRSA isolates; assay type: cell-based; conditions: Staphylococcus aureus, range over isolates, read-out: MIC against a panel of four MRSA isolates
[4] = LDH release assay for HeLa cytotoxicity; assay type: cell-based; conditions: human, HeLa cells; LDH release, 24 hours; tested at 25, 50 and 100 µM; read-out: HeLa Cytotox. IC50
VRE 700221 [5] = assay: MIC broth microdilution assay; assay type: cell-based, Enterococcus faecium; conditions: Enterococcus, VRE
VRE 700221 [6] = assay: Calgary Biofilm Device (CBD) MBC/MBEC assay; assay type: cell-based, Enterococcus faecium; conditions: CBD
MRSA BAA-1707 [7] = assay: Calgary Biofilm Device (CBD) MBC/MBEC assay; assay type: cell-based, Staphylococcus aureus
[8] = Hemolysis assay with red blood cells; conditions: human, pH 7.2
MRSA BAA-44 = assay: MIC broth microdilution assay; assay type: cell-based; conditions: Staphylococcus aureus; Table 1; read-out: MIC MRSA BAA-44
MRSA-1 = assay: MIC broth microdilution assay; assay type: cell-based, Staphylococcus aureus; conditions: for MIC: Staphylococcus aureus, MRSA
MRSA-2 = assay: MIC broth microdilution assay; assay type: cell-based, Staphylococcus aureus; conditions: Table 1; read-out: MIC MRSA-2
MRSE 35984 [9] = assay: Calgary Biofilm Device (CBD) MBC/MBEC assay; assay type: cell-based, Staphylococcus epidermidis; conditions: CBD
[10] = Table 1, three independent experiments

With `Oc1c(Br)cc(Br)c2nc3c(Cl)cccc3nc12` [HP 21] as the compound, how does the MIC (MRSE 35984 [1]; Staphylococcus epidermidis, MRSE, Table 3, read-out: MRSE 35984 MIC) read?
Its MIC is 0.3 µM (≈ 0.117 µg/mL).

And the MIC (MRSE 35984 [1]; Staphylococcus epidermidis, MRSE, single plate shown as picture, read-out: MIC (µM), MIC Assay Against MRSE 35984)?
Its MIC is 0.2 µM (≈ 0.0777 µg/mL).

What about the “rate of copper(II) chelation” value (UV-Vis metal(II) binding) of the same compound?
Its value is “faster rate than HP 1”.

And the MIC (MRSA BAA-1707 [2]; Staphylococcus aureus, Fe(II) co-treatment plate, lanes without metal, read-out: MIC)?
The MIC was 0.1 µM.

What about the MIC (MRSA BAA-1707 [2]; Staphylococcus aureus, Table 2, MRSA BAA-1707, no metal(II) cation added, read-out: MIC) of the same compound?
Its MIC is 0.1 µM.

And the MIC (MRSA BAA-1707 [2]; Staphylococcus aureus, Zn(II) extended plate assay, lanes without metal, read-out: MIC)?
The MIC was 0.1 µM.

And the MIC (MRSA BAA-1707 [2]; Staphylococcus aureus, copper(II) at 200 µM co-treatment, read-out: MIC w/Cu2+)?
Its MIC is 6.25 µM.

And the MIC (MRSA BAA-1707 [2]; Staphylococcus aureus, iron(II) at 200 µM co-treatment, read-out: MIC w/Fe2+)?
Its MIC is 0.59 µM.

And the MIC (MRSA BAA-1707 [2]; Staphylococcus aureus, magnesium(II) at 200 µM co-treatment, read-out: MIC w/Mg2+)?
Its MIC is 0.15 µM.

What about the MIC (MRSA BAA-1707 [2]; Staphylococcus aureus, zinc(II) at 200 µM co-treatment, read-out: MIC w/Zn2+) of the same compound?
The MIC was 0.15 µM.

And the MIC (MRSA BAA-1707 [2]; extended plate assay, 200 µM Zn(II), read-out: MIC (µM) + Zn(II))?
The MIC was 0.10 µM.

And the MIC (MRSA BAA-1707 [2]; single plate, 200 µM Fe(II), read-out: MIC (µM) + Fe(II))?
Its MIC is 0.78 µM.

What about the MIC (MtB H37Ra) of the same compound?
Its MIC is 50 µM (≈ 19.4 µg/mL).

And the MIC (MRSA BAA-1707 [3]; Table 1, three independent experiments, read-out: MIC MRSA BAA-1707)?
The MIC was 0.05 to 0.3 µM (≈ 0.0194 to 0.117 µg/mL).

And the MIC (MRSA BAA-1707 [3]; Table 3, read-out: MRSA BAA-1707 MIC)?
Its MIC is 0.08 µM (≈ 0.0311 µg/mL).

What about the MIC (MRSA BAA-1707 [3]; single plate shown as picture, read-out: MIC (µM), MIC Assay against MRSA BAA-1707) of the same compound?
The MIC was 0.1 µM (≈ 0.0388 µg/mL).

And the “MIC MRSA BAA-1707” value (MRSA BAA-1707 [3]; [10])?
The value was 0.08^a µM.

And the MIC (four MRSA isolates)?
The MIC was 0.05 to 0.59 µM (≈ 0.0194 to 0.229 µg/mL).

What about the IC50 at 24 h [4] of the same compound?
Its IC50 at 24 h is > 100 µM.

And the MIC (VRE 700221 [5]; Table 3, read-out: VRE 700221 MIC)?
Its MIC is 1.56 µM (≈ 0.606 µg/mL).

And the MIC (VRE 700221 [5]; single plate shown as picture, read-out: MIC (µM), MIC Assay Against VRE 700221)?
Its MIC is 1.56 µM (≈ 0.606 µg/mL).

And the “VRE 700221 MBEC” value (VRE 700221 [6]; biofilm eradication)?
Its value is 25/25 µM.

And the MBC (VRE 700221 [6]; Enterococcus, VRE, planktonic killing, read-out: VRE 700221 MBC)?
Its MBC is 25 µM (≈ 9.71 µg/mL).

What about the MBC (MRSA BAA-1707 [7]; Staphylococcus aureus, 24 h, CBD, planktonic killing, 24 hours treatment, read-out: MRSA BAA-1707 MBC) of the same compound?
The MBC was 6.25 µM (≈ 2.43 µg/mL).

What about the MBC (MRSA BAA-1707 [7]; Staphylococcus aureus, 24 h, supplement page 27, second CBD plate, read-out: MRSA Planktonic Killing MBC) of the same compound?
Its MBC is 6.25 µM (≈ 2.43 µg/mL).

What about the hemolysis at 1 h, 200 µM [8] of the same compound?
Its hemolysis at 1 h, 200 µM is ≤ 1%.

And the MIC (MRSA BAA-44)?
Its MIC is 0.59 µM (≈ 0.229 µg/mL).

What about the MIC (MRSA-1; Table 1, read-out: MIC MRSA-1) of the same compound?
The MIC was ≤ 0.1 µM.

What about the MIC (MRSA-1; single plate shown as picture, read-out: MIC (µM), MIC Assay Against MRSA-1) of the same compound?
Its MIC is 0.1 µM (≈ 0.0388 µg/mL).

With `c1ccc(CN(CCN(Cc2ccccn2)Cc2ccccn2)Cc2ccccn2)nc1` [TPEN, reference compound] as the compound, how does the MIC (MRSE 35984 [1]; Table 1, read-out: MIC MRSE 35984) read?
Its MIC is 12.5 µM (≈ 5.31 µg/mL).

And the MIC (MRSE 35984 [1]; Table 3, read-out: MRSE 35984 MIC)?
The MIC was 12.5 µM (≈ 5.31 µg/mL).

What about the MIC (MRSA BAA-1707 [2]; Table 2, MRSA BAA-1707, no metal(II) cation added) of the same compound?
Its MIC is 46.9^a µM.

What about the MIC (MRSA BAA-1707 [2]; copper(II) at 200 µM co-treatment, read-out: MIC w/Cu2+) of the same compound?
Its MIC is 500 µM.

And the MIC (MRSA BAA-1707 [2]; iron(II) at 200 µM co-treatment, read-out: MIC w/Fe2+)?
The MIC was 125 µM.

What about the MIC (MRSA BAA-1707 [2]; magnesium(II) at 200 µM co-treatment, read-out: MIC w/Mg2+) of the same compound?
The MIC was 62.5 µM.

What about the MIC (MRSA BAA-1707 [2]; zinc(II) at 200 µM co-treatment, read-out: MIC w/Zn2+) of the same compound?
The MIC was 250 µM.

What about the MIC (MRSA-2) of the same compound?
The MIC was 50 µM (≈ 21.2 µg/mL).

What about the “MIC MRSA BAA-1707” value (MRSA BAA-1707 [3]; [10]) of the same compound?
Its value is 46.9^a µM.

And the “MRSA BAA-1707 MIC” value (MRSA BAA-1707 [3]; Table 3)?
Its value is 46.9^a µM.

And the MBC (MRSA BAA-1707 [7]; CBD, planktonic killing, 24 hours treatment, read-out: MRSA BAA-1707 MBC)?
The MBC was 375 µM (≈ 159 µg/mL).

What about the “MRSA-1707 Biofilm Eradication MBEC” value (MRSA BAA-1707 [7]; Figure 7A, single CBD plate) of the same compound?
The value was > 2000 µM.

And the MBC (MRSA BAA-1707 [7]; Figure 7A, single CBD plate, read-out: MRSA-1707 Planktonic Eradication MBC)?
Its MBC is 250 µM (≈ 106 µg/mL).

And the “MRSA Biofilm Eradication MBEC” value (MRSA BAA-1707 [7]; supplement page 27, first CBD plate)?
Its value is > 2000 µM.

What about the MBC (MRSA BAA-1707 [7]; supplement page 27, first CBD plate, read-out: MRSA Planktonic Killing MBC) of the same compound?
The MBC was 250 µM (≈ 106 µg/mL).

What about the “Hemolysis at 200 µM (%)” value (human red blood cells) of the same compound?
The value was ≤1%.

What about the “MIC MRSA-1” value (MRSA-1; Table 1) of the same compound?
Its value is 75^a µM.

And the “MRSE 35984 MBEC” value (MRSE 35984 [9]; biofilm eradication)?
Its value is > 2000 µM.

And the MBC (MRSE 35984 [9]; planktonic killing, read-out: MRSE 35984 MBC)?
Its MBC is 250 µM (≈ 106 µg/mL).
